Results from patent publication US20100111867A1, “CARBORANE-PHOSPHONIUM COMPOUNDS AND THEIR USE IN BORON NEUTRON CAPTURE THERAPY AND IMAGING” (THE UNIVERSITY OF SYDNEY, priority 2007, published 2010).

How the values were obtained:
[1] = test system: SF268 (human glioblastoma) cell line; test: Preliminary in vitro cytotoxicity screening against SF268 cell line; type: cell-based
Excerpt: In contrast to the 1,12-carborane derivative 4, the 1,2- and 1,7-isomers undergo a deboronation reaction in polar solvents to afford the corresponding zwitterionic nido-carborane phosphonium species.

[2] = Deboronation of closo-carborane phosphonium salts in polar solvents; type: physicochemical; conditions: polar solvents such as DMSO
Excerpt: The deboronation reaction was not observed for 4, which contains 1,12-carborane. The inventors hypothesise that 4 is highly resistant to the deboronation reaction because no boron atoms within the cluster are bonded to two adjacent and electronegative carbon atoms. The facile deboronation of closo-1,2-carborane under mild, non-basic conditions is known with alcohols, water and acids (E. Svantesson, J. Pettersson, Å. Olin, K. Markides, S. Sjöberg, Acta Chem. Scand., 1999, 53, 731. V. A. Ol'shevskaya, R. Ayuob, Z. G. Brechko, P. V. Petrovskii, E. G. Kononova, G. L. Levit, V. P. Krasnov, V. N. Charushin, O. N. Chupakhin, V. N. Kalinin, J. Organomet. Chem., 2005, 690, 2761. Y.-J. Lee, J.-D. Lee, J. Ko, S.-H. Kim, S. O. Kang, Chem. Commun., 2003, 1364) and has also been observed when functional groups located α- to the cage are electron-withdrawing and the compounds are exposed to polar solvents containing small amounts of H2O or MeOH (J. J. Schaeck, S. B. Kahl, Inorg. Chem., 1999, 38, 204). In the present case, the deboronation reactions occur in polar solutions such as dry DMF and thus most likely proceed by nucleophilic attack of the iodide counter-ion on the most electrophilic boron atoms in the cage, i.e. B3 (or B6) for 1,2-carborane and B2 (or B3) for 1,7-carborane.

deboronation reaction to nido-carborane zwitterion [2]	Compound	GI50 [1]
–	C[P+](c1ccccc1)(c1ccccc1)c1ccccc1 [TPMP, triphenylmethylphosphonium, reference compound]	12.5 µM
spontaneously deboronate	methyldiphenyl(1,2-dicarba-closo-dodecaboranyl)phosphonium iodide [Compound 5]	–
spontaneously deboronate	methyldiphenyl(1,7-dicarba-closo-dodecaboranyl)phosphonium iodide [Compound 6]	–
not observed	methyldiphenyl(1,12-dicarba-closo-dodecaboranyl)phosphonium iodide [Compound 4]	> 40 µM
